A word on the viability: it is a read-out of living cells in per cent, often relative to untreated cells. As usually defined, the IC50 is the concentration that gives 50% inhibition.

The record followed here is patent US11286226B2, “Polycyclic carbogenic molecules and uses thereof as anti-cancer agents” (Northwestern University, priority 2017, dated 2022).

Data set [1] has as its system HT29 (colon). Nature of the data set: Cell viability at 1 mM (CellTiter-GLO), HT29. The conditions noted are these: Homo sapiens, read-out: Percent Cell Viability of Treated Cell Lines at 1.0 mM, HT29. It is filed as cell-based. Here is the method:
(§1) Cell lines PC-3, HT29, Hela, and MDA-MB-231 were cultured in RPMI1640 with 10% FBS media. Cell line MDA-MB-231-LM24 was cultured in DMEM with 400 ug/mL geneticin.
(§2) PC-3, HT29, Hela, and MDA-MB-231, and MDA-MB-231-LM24 cells were plated in […] at a density of 20,000 cells per well (based on NCI recommendation for adherent cells) in 90 μL volume of 5% FBS RPMI1640 complete media with 50 μg/mL gentamicin and incubated at 37° C. overnight. Each compound was diluted in RPMI1640 complete media supplemented with 5% FBS and 50 μg/mL of gentamycin, and 10 μL of this solution was added to each well to give a final concentration of 1 mM (1% overall DMSO, N=4 wells).
(§3) Cells treated with Doxorubicin with 1% overall DMSO were used as a positive control, and cells media containing 1% DMSO were used as a negative control.
(§4) 48 hours following treatment, cell proliferation was evaluated using the CellTiter-GLO Luminescent Cell Viability Assay (Promega, Madison, Wis.). Plates were allowed to equilibrate to room temperature for 20 minutes, and 100 μL of CellTiter-GLO reagent was added to all wells. The plates were shaken for 2 minutes and incubated at room temperature for 10 minutes. Luminescence was measured using a Syngergy H1-M microplate reader (BioTek Instruments, Inc.).
Background: In ATP-based viability assays light output follows the ATP content of the culture.

Data set [2] has as its system PC-3 (prostate). Description: Cell viability at 1 mM (CellTiter-GLO), PC-3. It is filed as cell-based. Conditions: Homo sapiens, 48 h, read-out: Percent Cell Viability of Treated Cell Lines at 1.0 mM, PC-3. Here is the method: as §1, §2, §3, §4
The subject of data set [3] is HeLa (cervix). Description: Cell viability at 1 mM (CellTiter-GLO), HeLa. The conditions noted are these: Homo sapiens, 48 h, read-out: Percent Cell Viability of Treated Cell Lines at 1.0 mM, HeLa. It counts as cell-based. The procedure: as §1, §2, §3, §4
The subject of data set [4] is MDA-MB-231 (breast). Description: Cell viability at 1 mM (CellTiter-GLO), MDA-MB-231. It is filed as cell-based. The conditions noted are these: Homo sapiens, read-out: Percent Cell Viability of Treated Cell Lines at 1.0 mM, MDA-MB-231. Here is the method: as §1, §2, §3, §4
The subject of data set [5] is MDA-MB-231-LM24 (metastatic breast). Nature of the data set: Cell viability at 1 mM (CellTiter-GLO), MDA-MB-231-LM24. It is filed as cell-based. The conditions noted are these: Homo sapiens, read-out: Percent Cell Viability of Treated Cell Lines at 1.0 mM, MDA-MB-231-LM24. Here is the method: as §1, §2, §3, §4
The nature of data set [6]: Cell viability at 1 mM (CellTiter-GLO), MCF10A. It counts as cell-based. Conditions: human, MCF10A cells (normal breast); 1.0 mM in DMSO, 48 h, MCF10A; read-out: Percent Cell Viability of Treated Cell Lines at 1.0 mM, MCF10A. The procedure: (§5) Normal breast cell line MCF10A was cultured in DMEM/F12 with 5% horse serum, 20 ng/mL EGF, […], 100 ng/mL cholera toxin, 10 μg/mL insulin, and 1% pen/strep.
(§6) Normal breast cells (MCF10A) were plated in 96-well black plates at a density of 20,000 cells per well (based on the NCI recommendation for adherent cells) in 90 μL volume of DMEM/F12 with 2% horse serum, 0.5 μg/mL hydrocortisone, 100 ng/mL cholera toxin, 10 μg/mL insulin, and 1% pen/strep, and incubated at 37° C. overnight. The compounds were diluted in the media specified above, and 10 μL of this solution was added to each well to give a final concentration of 1 mM (1% overall DMSO, N=4 wells).
as §3, §4

Data set [7] has as its system MCF10A ("normal" breast). Description: Cell viability at 1 mM (CellTiter-GLO), MCF10A. It counts as cell-based. Conditions: non-tumorigenic breast epithelial cell line, 1.0 mM. Here is the method: as §5, §6, §3, §4
Data set [8] deals with PC3 (prostate) cancer cell line. Description: Cell viability assay at three concentrations (FIG. 7), PC3. The conditions noted are these: three different concentrations. It counts as cell-based, human.
For data set [9], the system named is MDA-MB-231 (breast) cancer cell line. Description: Cell viability assay at three concentrations (FIG. 7), MDA-MB-231. The conditions noted are these: three different concentrations. It counts as cell-based, human.
In data set [10] the test system is MDA-MB-231-LM24. Description: IC50 experiment (CellTiter-GLO), MDA-MB-231-LM24. It counts as cell-based, human. The procedure:
as §1
(§7) The compound was diluted in RPMI1640 complete media supplemented with 5% FBS and 50 μg/mL of gentamycin, and 100 μL of this solution was added to each well to give a final concentration of 0.00001-1 mM (N=4 wells). DMSO was held constant at 1%, for all dose points.
(§8) 48 hours following treatment, cell proliferation was evaluated using the CellTiter-GLO Luminescent Cell Viability Assay (Promega, Madison, Wis.). Plates were allowed to equilibrate to room temperature for 20 minutes, and 100 μL of CellTiter-GLO reagent was added to all wells. The plates were shaken for 2 minutes and incubated at room temperature for 10 minutes. Luminescence was measured using a Syngergy H1-M microplate reader (BioTek Instruments, Inc.). The IC50 value was determined by Prism GraphPad Software.

Data set [11] deals with MCF10A. Nature of the data set: IC50 experiment (CellTiter-GLO), MCF10A. It is filed as cell-based. The conditions noted are these: Homo sapiens, MCF-10A; 48 h, 1% DMSO; read-out: IC50 against MCF10A. The procedure: as §5, §7, §8
[12] abbreviates: HT-29, 1.0 mM in DMSO, 48 h, HT29.
Setting [13] is: 1.0 mM in DMSO, 48 h, MDA-MB-231.
Where [14] appears, read: 1.0 mM in DMSO, 48 h, MDA-MB-231-LM24.

Like-named read-outs stand apart in the source and are kept apart here.

For the molecule `O=C1C=CC[C@H]2C=C[C@@H]3CC=CC(=O)[C@H]3[C@H]12` [Compound 13], the viability at 1000 µM was determined as 2% in data set [1] (setting [12]); 0% in data set [2] (1.0 mM in DMSO, PC-3); 4% in [3] (1.0 mM in DMSO); 26% in data set [4] (setting [13]); 2% in data set [5] (setting [14]). For the same molecule, in data set [6], the viability at 48 h, 1 mM turned out to be 1%. The “activity against MCF10A cell line” value in data set [7] is listed as “highly active”.

`CC1=CC[C@H]2C=C[C@@H]3CC=C(C)C(=O)[C@H]3[C@@H]2C1=O` [Compound 14]: the viability at 1000 µM was determined as 1% in data set [1] (setting [12]); 72% in data set [2] (1.0 mM in DMSO, PC-3); 46% in data set [3] (1.0 mM in DMSO); 69% in data set [4] (setting [13]); 67% in data set [5] (setting [14]).

For `CC1=CC(=O)[C@@H]2[C@H]3C(=O)C=C(C)C[C@@H]3C=C[C@H]2C1` [Compound 15], the viability at 1000 µM in [1] (setting [12]) came to 66%; in data set [2] (1.0 mM in DMSO, PC-3), 63%; in data set [3] (1.0 mM in DMSO), 40%; in data set [4] (setting [13]), 11%; in data set [5] (setting [14]) it was 54%.

Turning to `CC1=CC[C@H]2C=C(C)[C@@H]3CC=C(C)C(=O)[C@H]3[C@@H]2C1=O` [Compound 18], the “activity in cell viability assay, PC3” value in data set [8] was “promising activity”. For the same molecule, the “activity in cell viability assay, MDA-MB-231” value in data set [9] is on record as “promising activity”.

Regarding `CC1=CC[C@H]2C(C)=C[C@@H]3CC=CC(=O)[C@@]3(C)[C@@H]2C1=O` [Compound 19], the viability at 1000 µM in [1] (setting [12]) turned out to be 1%; in [2] (1.0 mM in DMSO, PC-3), 1%; in data set [3] (1.0 mM in DMSO), 0%; in data set [4] (setting [13]) it was 0%; in [5] (setting [14]), 0%.

With `CC1=CC[C@@H]2C(C)=C[C@@]3(C)CC=CC(=O)[C@@H]3[C@H]2C1=O` [Compound 20], the viability at 1000 µM in [1] (setting [12]) is 31%; in [2] (1.0 mM in DMSO, PC-3), 11%; in data set [3] (1.0 mM in DMSO), 2%; in data set [4] (setting [13]), 43%; in data set [5] (setting [14]), 10%.

Take `CC1=CC[C@@H]2C(C)=C[C@@H]3[C@H](C(=O)C=CC3(C)C)[C@H]2C1=O` [Compound 21]: the viability at 1000 µM in data set [1] (HT-29, 48 h) came out at 0%; in data set [2], 0%; in data set [3] it was 0%; in data set [4] (MDA-MB-231, 48 h) it was 0%; in [5] (MDA-MB-231-LM24, 48 h), 0%. The viability at 48 h, 1 mM in data set [6] turned out to be 4%. Also, the “activity against MCF10A cell line” value in data set [7] was “highly active”.

Take `CC1=CC[C@H]2C(C)=CCC3(CCC=CC3=O)[C@@H]2C1=O` (some centres unmarked) [Compound 24]: the viability at 1000 µM is 0% in [1] (setting [12]); 0% in [2] (1.0 mM in DMSO, PC-3); 3% in data set [3] (1.0 mM in DMSO); 1% in data set [4] (setting [13]); 0% in data set [5] (setting [14]). In [6], the viability at 48 h, 1 mM was 4%. Further, the “activity against MCF10A cell line” value in data set [7] is reported as “highly active”. In addition, the “activity in cell viability assay, PC3” value in [8] was “promising activity”. For the same molecule, the “activity in cell viability assay, MDA-MB-231” value in data set [9] is reported as “promising activity”.

With `O=C1C=CC[C@H]2CC=C[C@@H]3CC=CC(=O)[C@H]3[C@H]12` [Compound 25], the viability at 1000 µM in [1] (setting [12]) was determined as 0%; in data set [2] (1.0 mM in DMSO, PC-3), 0%; in [3] (1.0 mM in DMSO) it was 21%; in data set [4] (setting [13]), 6%; in data set [5] (setting [14]), 1%.

Consider `C[C@]12CC(=O)C=C[C@@H]1CC=CC2=O` [Compound 28], for which the viability at 1000 µM in [1] (setting [12]) was found to be 0%; in [2] (1.0 mM in DMSO, PC-3) it was 1%; in data set [3] (1.0 mM in DMSO), 0%; in [4] (setting [13]), 2%; in data set [5] (setting [14]), 16%.

`C[C@@]12C=CC(=O)C[C@H]1C(=O)C=CC2` [Compound 29]: the viability at 1000 µM turned out to be 8% in [1] (setting [12]); 2% in [2] (1.0 mM in DMSO, PC-3); 22% in data set [3] (1.0 mM in DMSO); 62% in [4] (setting [13]); 26% in data set [5] (setting [14]).

Consider `O=C1C=CC[C@@H]2[C@@H]1[C@@H]1C(=O)C=CC[C@H]1C1O[C@H]12` (some centres unmarked) [Compound 31], for which the viability at 1000 µM turned out to be 0% in data set [1] (setting [12]); 0% in [2] (1.0 mM in DMSO, PC-3); 2% in [3] (1.0 mM in DMSO); 26% in data set [4] (setting [13]); 3% in data set [5] (setting [14]). For the same molecule, the viability at 48 h, 1 mM in data set [6] is 5%. Further, the “activity against MCF10A cell line” value in data set [7] is recorded as “highly active”.

`O=C1C2O[C@@H]2C[C@H]2C=C[C@@H]3CC4O[C@H]4C(=O)[C@H]3[C@H]12` (some centres unmarked) [Compound 32]: the viability at 1000 µM was 1% in data set [1] (setting [12]); 1% in [2] (1.0 mM in DMSO, PC-3); 0% in data set [3] (1.0 mM in DMSO); 25% in data set [4] (setting [13]); 0% in data set [5] (setting [14]). Also, in data set [6], the viability at 48 h, 1 mM came to 70%. In addition, the IC50 in data set [10] (Homo sapiens, MDA-MB-231-LM24, 48 h, 1% DMSO, read-out: IC50 against MDA-MB-231-LM24) came to 200 µM; in data set [11] it was 3100 µM. The “selectivity between cancer versus "normal" cell lines” value in [10] (MCF10A IC50 versus MDA-MB-231-LM24 IC50) is 15 times.

For `O=C1CCC[C@H]2CC[C@@H]3CCCC(=O)[C@H]3[C@H]12` [Compound 33], the viability at 1000 µM in [1] (setting [12]) is 51%; in data set [2] (1.0 mM in DMSO, PC-3) it was 77%; in [3] (1.0 mM in DMSO), 13%; in data set [4] (setting [13]) it was 75%; in [5] (setting [14]), 60%.

Regarding `CC1=C[C@@H]2[C@H](C(=O)CCC2(C)C)[C@H]2C(=O)[C@@H](C)CC[C@H]12` [Compound 36], the viability at 1000 µM is 64% in data set [1] (setting [12]); 77% in data set [2] (1.0 mM in DMSO, PC-3); 41% in [3] (1.0 mM in DMSO); 53% in data set [4] (setting [13]); 55% in [5] (setting [14]).
